# Assay results: ChEMBL document CHEMBL3045599, “SYNTHESIS, ANOREXIGENIC ACTIVITY AND QSAR OF SUBSTITUTED ARYLOXYPROPANOLAMINES” (Med Chem Res, 2004)
# The source made the active and inactive calls. The rule behind the calls is not given here.
# Legend:
# Mus musculus [1] = assay: Effect on CNS in Mus musculus Swiss (mouse) assessed as reversal of resperine-induced sedation at 75 umol/kg, ip; type: ADME, organism-based, Central nervous system; details: in vivo
# Mus musculus [2] = assay: Anorexigenic activity in Mus musculus Swiss (mouse) at 75 umol/kg, ip measured for 15 min relative to control; type: functional
# Mus musculus [3] = assay: Effect on CNS in Mus musculus Swiss (mouse) assessed as reversal of resperine-induced ptosis at 75 umol/kg, ip; type: ADME, organism-based, Central nervous system; details: in vivo
# Mus musculus [4] = assay: Antidepressant activity in Mus musculus Swiss (mouse) at 75 umol/kg, ip; type: functional, organism-based
# Mus musculus [5] = assay: Effect on CNS in Mus musculus Swiss (mouse) assessed as gross behavioural effects at 75 umol/kg, ip; type: ADME, organism-based, Central nervous system; details: in vivo
Compound,Activity (Mus musculus [1]),Activity (Mus musculus [2]) [%],Activity (Mus musculus [3]),Activity (Mus musculus [4]),Activity (Mus musculus [5])
CCC(=O)c1ccc(OCC(O)CN(C)CCC(Oc2ccc(C(F)(F)F)cc2)c2ccccc2)cc1 (stereo not drawn),Non-toxic,36,Non-toxic,inactive,Non-toxic
Cc1ccccc1OCC(O)CN(C)CCC(Oc1ccc(C(F)(F)F)cc1)c1ccccc1 (stereo not drawn),Non-toxic,60,Non-toxic,inactive,Non-toxic
CN(CCC(Oc1ccc(C(F)(F)F)cc1)c1ccccc1)CC(O)COc1ccc(C#N)cc1 (stereo not drawn),Non-toxic,72,Non-toxic,Active,Non-toxic
COc1ccccc1OCC(O)CN(C)CCC(Oc1ccc(C(F)(F)F)cc1)c1ccccc1 (stereo not drawn),Non-toxic,56,Non-toxic,inactive,Non-toxic
CNCCC(Oc1ccc(C(F)(F)F)cc1)c1ccccc1 (stereo not drawn) [FLUOXETINE],100%,72,100%,–,–
CN(CCC(Oc1ccc(C(F)(F)F)cc1)c1ccccc1)CC(O)COc1ccc(Cl)cc1 (stereo not drawn),Non-toxic,28,Non-toxic,inactive,Non-toxic
CN(CCC(Oc1ccc(C(F)(F)F)cc1)c1ccccc1)CC(O)COc1ccc(C(F)(F)F)cc1 (stereo not drawn),Non-toxic,32,Non-toxic,inactive,Non-toxic
COc1ccc(OCC(O)CN(C)CCC(Oc2ccc(C(F)(F)F)cc2)c2ccccc2)cc1 (stereo not drawn),Non-toxic,52,Non-toxic,inactive,Non-toxic
CC(=O)Nc1ccc(OCC(O)CN(C)CCC(Oc2ccc(C(F)(F)F)cc2)c2ccccc2)cc1 (stereo not drawn),Non-toxic,60,Non-toxic,inactive,Non-toxic
CN(CCC(Oc1ccc(C(F)(F)F)cc1)c1ccccc1)CC(O)COc1ccc(C=O)cc1 (stereo not drawn),Non-toxic,40,Non-toxic,inactive,Non-toxic
CN(CCC(Oc1ccc(C(F)(F)F)cc1)c1ccccc1)CC(O)COc1ccc2ccccc2c1 (stereo not drawn),Non-toxic,40,Non-toxic,inactive,Non-toxic
CCNc1ccc(OCC(O)CN(C)CCC(Oc2ccc(C(F)(F)F)cc2)c2ccccc2)cc1 (stereo not drawn),Non-toxic,60,Non-toxic,inactive,Non-toxic
CN(CCC(Oc1ccc(C(F)(F)F)cc1)c1ccccc1)CC(O)COc1cccc(C(F)(F)F)c1 (stereo not drawn),Non-toxic,32,Non-toxic,inactive,Non-toxic
CN(CCC(Oc1ccc(C(F)(F)F)cc1)c1ccccc1)CC(O)COc1ccccc1 (stereo not drawn),Non-toxic,52,Non-toxic,inactive,Non-toxic
CN(CCC(Oc1ccc(C(F)(F)F)cc1)c1ccccc1)CC(O)COc1ccc(Br)cc1 (stereo not drawn),Non-toxic,60,Non-toxic,inactive,Non-toxic
CC(=O)c1ccc(OCC(O)CN(C)CCC(Oc2ccc(C(F)(F)F)cc2)c2ccccc2)cc1 (stereo not drawn),Non-toxic,32,Non-toxic,inactive,Non-toxic
